Activity calls are given as the source filed them. The rule behind the calls is not given here.
What was measured:
HepG2 [1] = assay: cells; conditions: Homo sapiens, HepG2, 72 h
Description: Cytotoxicity against human HepG2 cells after 72 hrs by MTT assay

RAW264.7 [2] = assay: Anti-inflammatory activity in mouse RAW264.7 cells assessed as reduction in LPS-induced IL-6 production after 48 hrs by ELISA; assay type: functional, cell-based; conditions: RAW264.7, 48 h
RAW264.7 [3] = assay: Anti-inflammatory activity in mouse RAW264.7 cells assessed as reduction in LPS-induced TNF-alpha production after 48 hrs by ELISA; assay type: functional, cell-based; conditions: RAW264.7, 48 h
Acetylcholinesterase [4] = target: T1, Acetylcholinesterase (Homo sapiens, UniProt P22303); assay: Inhibition of AChE (unknown origin) using acetylthiocholine iodide as substrate preincubated for 20 mins followed by substrate addition and measured every 30 secs for 1 hr by Ellman's assay
PC-9 [5] = assay: Cytotoxicity against human PC9 cells after 72 hrs by MTT assay; assay type: cell-based; conditions: PC-9, 72 h
Jurkat [6] = assay: cells; conditions: Homo sapiens, 48 h
Description: Immunosuppressive activity in human Jurkat cells assessed as reduction in PHA + PMA-induced IL-2 production after 48 hrs by ELISA

NCI-H1975 [7] = assay: cells; conditions: Homo sapiens, NCI-H1975, 72 h
Description: Cytotoxicity against human NCI-H1975 cells after 72 hrs by MTT assay

Acetylcholinesterase [8] = target: T1, Acetylcholinesterase; assay: Inhibition of AChE (unknown origin) at 250 uM using acetylthiocholine iodide as substrate preincubated for 20 mins followed by substrate addition and measured every 30 secs for 1 hr by Ellman's assay
Jurkat [9] = assay: Immunosuppressive activity in human Jurkat cells assessed as reduction in PHA + PMA-induced IL-2 production at 20 uM after 48 hrs by ELISA; assay type: functional, cell-based
PC-9 [10] = assay: Cytotoxicity against human PC9 cells at 80 uM after 72 hrs by MTT assay; assay type: cell-based; conditions: pc-9, 72 h
HepG2 [11] = assay: Cytotoxicity against human HepG2 cells at 80 uM after 72 hrs by MTT assay; assay type: cell-based; conditions: hepg2, 72 h
NCI-H1975 [12] = assay: Cytotoxicity against human NCI-H1975 cells at 80 uM after 72 hrs by MTT assay; assay type: cell-based; conditions: nci-h1975, 72 h

T1 sequence (P22303 whole entry): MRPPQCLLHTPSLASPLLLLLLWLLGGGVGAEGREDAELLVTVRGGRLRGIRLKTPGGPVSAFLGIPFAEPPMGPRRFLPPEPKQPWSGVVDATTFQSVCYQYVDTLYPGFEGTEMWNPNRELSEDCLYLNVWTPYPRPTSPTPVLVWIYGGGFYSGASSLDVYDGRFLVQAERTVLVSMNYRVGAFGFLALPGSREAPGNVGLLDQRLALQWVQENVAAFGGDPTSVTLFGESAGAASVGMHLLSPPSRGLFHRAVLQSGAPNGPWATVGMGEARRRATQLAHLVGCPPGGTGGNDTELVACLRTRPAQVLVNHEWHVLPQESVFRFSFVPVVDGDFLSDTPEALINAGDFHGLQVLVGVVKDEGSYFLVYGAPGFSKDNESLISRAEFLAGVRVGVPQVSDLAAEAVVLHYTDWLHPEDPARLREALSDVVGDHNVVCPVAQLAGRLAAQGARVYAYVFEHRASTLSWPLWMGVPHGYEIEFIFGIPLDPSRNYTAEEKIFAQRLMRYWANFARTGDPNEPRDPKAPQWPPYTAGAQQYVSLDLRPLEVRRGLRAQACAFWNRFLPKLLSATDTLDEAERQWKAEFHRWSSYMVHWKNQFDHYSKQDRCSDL

Structure (SMILES)	IC50 (HepG2 [1]) [µM]	IC50 (RAW264.7 [2]) [µM]	IC50 (RAW264.7 [3]) [µM]	IC50 (Acetylcholinesterase [4]) [µM]	IC50 (PC-9 [5]) [µM]	IC50 (Jurkat [6]) [µM]	IC50 (NCI-H1975 [7]) [µM]	inhibition (Acetylcholinesterase [8]) [%]	inhibition (Jurkat [9])	Activity (PC-9 [10])	Activity (HepG2 [11])	Activity (NCI-H1975 [12])
COc1ccc(-c2cc(=O)c3cc(OC)c(O)c([C@H]4CCC(=O)N4)c3o2)cc1	52.9	> 20	> 20	18.3	> 80	16.5	> 80	–	–	–	–	–
C[C@@H]1C[C@H]2[C@@H]3CCC4=CC(=O)C=C[C@]4(C)[C@@]3(F)[C@@H](O)C[C@]2(C)[C@@]1(O)C(=O)CO [DEXAMETHASONE]	–	9.4	1.2	–	–	–	–	–	–	–	–	–
COc1ccc(-c2cc(=O)c3c(O)c(OC)c(O)cc3o2)cc1 [PECTOLINARIGENIN]	18.1	> 20	> 20	> 250	> 80	> 20	76.6	37.8	inactive	–	–	–
CC(=O)O[C@H]1C(=O)[C@@]2(C)[C@H]([C@H](OC(=O)c3ccccc3)[C@]3(O)C[C@H](OC(=O)[C@H](O)[C@@H](NC(=O)c4ccccc4)c4ccccc4)C(C)=C1C3(C)C)[C@]1(OC(C)=O)CO[C@@H]1C[C@@H]2O [PACLITAXEL]	10.3	–	–	–	3.7	–	3.9	–	–	–	–	–
COc1ccc(-c2cc(=O)c3cc(OC)c(O)c([C@@H]4CCC(=O)N4)c3o2)cc1	> 80	> 20	> 20	68	> 80	> 20	> 80	–	–	Non-Toxic	Non-Toxic	Non-Toxic
